Assays:
[1] = Apparent passive permeability of the compound in presence of […]; assay type: physicochemical; conditions: not told
human MDR1 = experiment: Efflux ratio of permeability from basolateral to apical side over apical to basolateral side in pig LLC-PK1 cells expressing human MDR1; assay type: ADME, cell-based, Sus scrofa
[2] = target: Calcitonin-gene-related peptide receptor, CALCRL/RAMP1 (Homo sapiens, UniProt O60894+Q16602); experiment: Displacement of [125I]-hCGRP from human CALCRL/RAMP1 expressed in HEK293 cell membranes
Sequence of Calcitonin-gene-related peptide receptor, CALCRL/RAMP1 (O60894 whole entry): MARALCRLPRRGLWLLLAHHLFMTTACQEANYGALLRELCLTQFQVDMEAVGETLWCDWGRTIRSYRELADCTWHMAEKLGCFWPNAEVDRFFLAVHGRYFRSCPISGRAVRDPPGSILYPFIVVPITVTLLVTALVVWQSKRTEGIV
Sequence of Calcitonin-gene-related peptide receptor, CALCRL/RAMP1 (Q16602 whole entry): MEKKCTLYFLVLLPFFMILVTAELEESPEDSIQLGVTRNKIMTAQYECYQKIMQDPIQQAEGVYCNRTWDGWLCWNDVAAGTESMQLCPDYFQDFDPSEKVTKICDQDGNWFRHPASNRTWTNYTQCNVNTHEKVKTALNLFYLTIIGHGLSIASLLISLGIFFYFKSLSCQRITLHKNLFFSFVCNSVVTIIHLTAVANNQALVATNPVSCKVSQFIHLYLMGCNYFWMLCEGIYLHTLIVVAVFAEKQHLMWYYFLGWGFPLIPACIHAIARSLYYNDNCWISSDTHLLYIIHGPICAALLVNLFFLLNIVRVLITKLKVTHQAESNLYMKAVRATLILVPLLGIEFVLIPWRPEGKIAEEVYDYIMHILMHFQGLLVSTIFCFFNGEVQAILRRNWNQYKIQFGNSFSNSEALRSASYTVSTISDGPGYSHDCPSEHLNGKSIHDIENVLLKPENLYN

[3] = Clearance in rat at 2 mg/kg; assay type: ADME, organism-based; set-up: dose 2 mg/kg; conditions: in vivo
[4] = Half life in rat at 2 mg/kg; assay type: ADME, organism-based; set-up: dose 2 mg/kg; conditions: in vivo
[5] = Oral bioavailability in rat at 10 mg/kg; assay type: ADME, organism-based; conditions: in vivo

Row | Papp [1] [×10⁻⁶ cm/s] | efflux ratio (human MDR1) | Ki [2] [nM] | clearance [3] [mL/min/kg] | half-life [4] [h] | bioavailability [5] [%] | SMILES
1 | 20 | 1.3 | – | – | – | – | C[C@H](c1cc(F)cc(F)c1)N(Cc1cnc2cc3c(cc2c1)C[C@@]1(C3)C(=O)Nc2ncccc21)C(=O)C(C)(C)C
2 | 33 | 27 | 3.38 | – | – | – | C[C@H](c1cc(F)cc(F)c1)N(C/C=C/c1ccc2c(c1)C[C@@]1(C2)C(=O)Nc2ncccc21)C(=O)[C@@H]1CCCN1C
3 | – | – | 0.35 | – | – | – | C[C@H](c1ccccc1)N(C/C=C/c1ccc2c(c1)C[C@@]1(C2)C(=O)Nc2ncccc21)C(=O)C(C)(C)C
4 | – | – | 0.2 | – | – | – | CC(C)(C)C(=O)N(C/C=C/c1ccc2c(c1)C[C@@]1(C2)C(=O)Nc2ncccc21)[C@@H]1CCc2ccccc21
5 | – | – | 1.27 | – | – | – | CC(C)C(=O)N(C/C=C/c1ccc2c(c1)C[C@@]1(C2)C(=O)Nc2ncccc21)[C@H](C)c1cc(F)cc(F)c1
6 | 32 | 1.9 | 0.09 | – | – | – | C[C@H](c1cc(F)cc(F)c1)N(C/C=C/c1ccc2c(c1)C[C@@]1(C2)C(=O)Nc2ncccc21)C(=O)C1CCOCC1
7 | 17 | 2 | 0.45 | – | – | – | Cc1cc(C(=O)N(C/C=C/c2ccc3c(c2)C[C@@]2(C3)C(=O)Nc3ncccc32)[C@H](C)c2cc(F)cc(F)c2)n(C)n1
8 | 27 | 1.4 | 0.04 | 23 | 11 | 51 | C[C@H](c1cc(F)cc(F)c1)N(C/C=C/c1cnc2c(c1)C[C@@]1(C2)C(=O)Nc2ncccc21)C(=O)C(C)(C)C
9 | – | – | 0.22 | – | – | – | C[C@H](c1ccccc1)N(C/C=C/c1cnc2c(c1)C[C@@]1(C2)C(=O)Nc2ncccc21)C(=O)C(C)(C)C
10 | 24 | 3.1 | 0.08 | – | – | – | CC(C)(C)C(=O)N(C/C=C/c1cnc2c(c1)C[C@@]1(C2)C(=O)Nc2ncccc21)[C@@H]1CCc2ccccc21
11 | 23 | 0.9 | 0.93 | – | – | – | CC(C)(C)C(=O)N(C/C=C/c1cnc2c(c1)C[C@@]1(C2)C(=O)Nc2ncccc21)Cc1cc(F)cc(F)c1
12 | 20 | 0.8 | 0.89 | – | – | – | CC(C)(C)C(=O)N(C/C=C/c1cnc2c(c1)C[C@@]1(C2)C(=O)Nc2ncccc21)C1CCCCCC1
13 | 18 | 1.1 | – | – | – | – | Cc1ccc([C@@H](C)N(C/C=C/c2cnc3c(c2)C[C@@]2(C3)C(=O)Nc3ncccc32)C(=O)C(C)(C)C)cc1F
14 | 17 | 1 | 0.31 | – | – | – | C[C@H](c1ccc(Cl)cc1)N(C/C=C/c1cnc2c(c1)C[C@@]1(C2)C(=O)Nc2ncccc21)C(=O)C(C)(C)C
15 | 21 | 2 | – | – | – | – | C[C@H](c1cc(F)cc(F)c1)N(C/C=C/c1cnc2c(c1)C[C@@]1(C2)C(=O)Nc2ncccc21)C(=O)C1(C(F)(F)F)CC1
16 | 17 | 1.5 | 0.13 | – | – | – | Cc1ccsc1C(=O)N(C/C=C/c1cnc2c(c1)C[C@@]1(C2)C(=O)Nc2ncccc21)[C@H](C)c1cc(F)cc(F)c1
17 | 28 | 19 | 0.16 | – | – | – | C[C@H](c1cc(F)cc(F)c1)N(C/C=C/c1cnc2c(c1)C[C@@]1(C2)C(=O)Nc2ncccc21)C(=O)c1nccn1C
18 | 29 | 16 | 2.39 | – | – | – | Cc1noc(C)c1C(=O)N(C/C=C/c1cnc2c(c1)C[C@@]1(C2)C(=O)Nc2ncccc21)[C@H](C)c1cc(F)cc(F)c1
19 | – | – | 0.2 | – | – | – | CC(C)(C)C(=O)N(CC#Cc1ccc2c(c1)C[C@@]1(C2)C(=O)Nc2ncccc21)[C@@H]1CCc2ccccc21
20 | – | – | 0.82 | – | – | – | C[C@H](c1ccccc1)N(CC#Cc1ccc2c(c1)C[C@@]1(C2)C(=O)Nc2ncccc21)C(=O)C(C)(C)C
21 | 26 | 1.1 | 0.05 | – | – | – | CC(C)(C)C(=O)N(CC#Cc1cnc2c(c1)C[C@@]1(C2)C(=O)Nc2ncccc21)[C@@H]1CCc2ccccc21
22 | 33 | 1.3 | 0.13 | – | – | – | C[C@H](c1ccccc1)N(CC#Cc1cnc2c(c1)C[C@@]1(C2)C(=O)Nc2ncccc21)C(=O)C(C)(C)C
23 | – | – | 2.06 | – | – | – | CC(C)(C)C(=O)N(CCCc1ccc2c(c1)C[C@@]1(C2)C(=O)Nc2ncccc21)[C@@H]1CCc2ccccc21
24 | – | – | 7.6 | – | – | – | C[C@H](c1ccccc1)N(CCCc1ccc2c(c1)C[C@@]1(C2)C(=O)Nc2ncccc21)C(=O)C(C)(C)C
25 | 26 | 3.1 | 0.22 | – | – | – | C[C@H](c1cc(F)cc(F)c1)N(CCCc1cnc2c(c1)C[C@@]1(C2)C(=O)Nc2ncccc21)C(=O)C(C)(C)C
26 | 33 | 2.6 | 0.61 | – | – | – | CC(C)(C)C(=O)N(CCCc1cnc2c(c1)C[C@@]1(C2)C(=O)Nc2ncccc21)[C@@H]1CCc2ccccc21
27 | 39 | 3.2 | 1.35 | – | – | – | C[C@H](c1ccccc1)N(CCCc1cnc2c(c1)C[C@@]1(C2)C(=O)Nc2ncccc21)C(=O)C(C)(C)C
28 | 26 | 3.2 | – | 11 | 1 | – | C[C@H](c1cc(F)cc(F)c1)N(CC(=O)Nc1ccc2c(c1)C[C@@]1(C2)C(=O)Nc2ncccc21)C(=O)C(C)(C)C
29 | – | – | 0.16 | – | – | – | C[C@H](c1cc(F)cc(F)c1)N(C/C=C/c1ccc2c(c1)C[C@@]1(C2)C(=O)Nc2ncccc21)C(=O)C(C)(C)C
30 | 25 | 8.8 | – | – | – | – | C[C@H](c1cc(F)cc(F)c1)N(CC(=O)Nc1ccc2c(c1)C[C@@]1(C2)C(=O)NC(=O)N1C)C(=O)C(C)(C)C

Source: ChEMBL document CHEMBL3098057, “(E)-Alkenes as replacements of amide bonds: development of novel and potent acyclic CGRP receptor antagonists” (Bioorg Med Chem Lett, 2014)
